Earlier results on one molecule are cited in patent US6461590B2, “Stabilized gas-supersaturated suspensions and methods for their delivery” (Wayne State University, priority 1996, dated 2002).

In the case of `OCC(O)CO` [Glycerin], the oxygen solubility is listed as 0.008 cc O2/g/atm.
